test system: CWR22RV1 cells; assay: Inhibition of proliferation of CWR22RV1 cells (CCK-8); assay type: cell-based, human; settings: Homo sapiens, CWR22Rv1, 144 h, 6 days
Description: • CWR22RV1 cell line (Cell Bank of Chinese Academy of Sciences, TCHu100) • FBS (Gibco, Cat. No. 10099-141) • 0.01M PBS (Biosharp, Cat. No. 162262) • RIPM1640 (Hyclone, Cat. No. 308090.01) • Penicillin-Streptomycin (Hyclone, Cat. No. SV30010) • Cell counting kit-8 (Signalway Antibody, Cat. No. CP002) • DMSO (Sigma, Cat. No. D5879) • Centrifuge Tube, 15 ml (Excell Bio, Cat. No. CS015-0001) • Cell Culture Dish, (Excell Bio, Cat. No. CS016-0128) • 96-well cell culture cluster (Corning, Cat. No. 3599) • 2. Experimental method (1) Preparation of Buffer
1) CWR22RV1 cells were subcultured in cell culture medium, and the cells in good growth condition were seeded in a 96-well plate, 80 μL for each well, thus the number of cells per well was 1500, then the plate was cultured overnight in a 37° C., 5% CO2 cell incubator.
2) The drug was prepared with dimethyl sulfoxide (DMSO) as a 30 mM stock solution. Prior to use, the solution was diluted 3 times with DMSO, and then diluted with a 3-fold gradient to obtain 9 concentration gradients. Then, each concentration of the compound was further diluted 200 times with the culture solution (to ensure that DMSO concentration in the culture system was 0.1%), 2 repeat wells for each concentration. The diluted solution of each compound (20 μL) was added to the cell culture well (with a final concentration of 10 μM, 3.3 μM, 1.1 μM . . . ), and shaken gently for mixing. In addition, three negative control wells containing only cells and three blank control wells containing only culture medium (20 μL DMSO diluted 200 times with culture medium being added to six wells) were included.
(1) After culturing for 6 days, 10 μL CCK-8 was added to each well and cultured for additional 2.5 h in a 37° C., 5% CO2 cell incubator.
(2) The absorbance (OD value) at 450 nm was measured with a multifunctional microplate reader.
(3) The data was analyzed by the Dose-response-inhibition equation in the software GraphPad Prism6, and the IC50 value was obtained.

SMILES | IC50 [µM]
CCS(=O)(=O)Nc1ccc(N2CCC3(CC3)C2)c(-c2cn(C)c(=O)c3[nH]ccc23)c1 [Compound 7, N-(3-(6-methyl-7-oxo-6,7-dihydro-1H-pyrrolo[2,3-c]pyridin-4-yl)-4-(5-aza-spiro[2.4]heptan-5-yl)phenyl)ethylsulfonamide] | 0.018
CCS(=O)(=O)Nc1ccc(N2CCC3(CC2)CC3)c(-c2cn(C)c(=O)c3[nH]ccc23)c1 [Compound 8] | 0.006
CCS(=O)(=O)Nc1ccc(N2CCCC3(CC3)C2)c(-c2cn(C)c(=O)c3[nH]ccc23)c1 [Compound 9, N-(3-(6-methyl-7-oxo-6,7-dihydro-1H-pyrrolo[2,3-c]pyridin-4-yl)-4-(5-aza-spiro[2.5]octan-5-yl)phenyl)ethylsulfonamide] | 0.03
Cn1cc(-c2cc(NS(=O)(=O)C3CC3)ccc2N2CC3(CCC3)C2)c2cc[nH]c2c1=O [Compound 10, N-(3-(6-methyl-7-oxo-6,7-dihydro-1H-pyrrolo[2,3-c]pyridin-4-yl)-4-(2-aza-spiro[3.3]heptan-2-yl)phenyl)cyclopropanesulfonamide] | 0.029
Cn1cc(-c2cc(NS(C)(=O)=O)ccc2N2CC3(CCC3)C2)c2cc[nH]c2c1=O [Compound 11, N-(3-(6-methyl-7-oxo-6,7-dihydro-1H-pyrrolo[2,3-c]pyridin-4-yl)-4-(2-aza-spiro[3.3]heptan-2-yl)phenyl)methanesulfonamide] | 0.03
Cn1cc(-c2cc(NS(=O)(=O)C3COC3)ccc2N2CC3(CCC3)C2)c2cc[nH]c2c1=O [Compound 12, N-(3-(6-methyl-7-oxo-6,7-dihydro-1H-pyrrolo[2,3-c]pyridin-4-yl)-4-(2-aza-spiro[3.3]heptan-2-yl)phenyl)oxetane-3-sulfonamide] | 0.089
CCCCS(=O)(=O)Nc1ccc(N2CC3(CCC3)C2)c(-c2cn(C)c(=O)c3[nH]ccc23)c1 [Compound 13, N-(3-(6-methyl-7-oxo-6,7-dihydro-1H-pyrrolo[2,3-c]pyridin-4-yl)-4-(2-aza-spiro[3.3]heptan-2-yl)phenyl)butane-1-sulfonamide] | 0.079
CCS(=O)(=O)Nc1ccc(N2CC3(CCC3)C2)c(-c2cn(C)c(=O)c3[nH]ccc23)c1 [Compound 14, N-(3-(6-methyl-7-oxo-6,7-dihydro-1H-pyrrolo[2,3-c]pyridin-4-yl)-4-(2-aza-spiro[3.3]heptan-2-yl)phenyl)ethanesulfonamide] | 0.031
Cn1cc(-c2cc(NS(C)(=O)=O)ccc2N2CC3(COC3)C2)c2cc[nH]c2c1=O [Compound 15, N-(3-(6-methyl-7-oxo-6,7-dihydro-1H-pyrrolo[2,3-c]pyridin-4-yl)-4-(2-oxa-6-aza-spiro[3.3]heptan-6-yl)phenyl)methanesulfonamide] | 0.65
CCS(=O)(=O)Nc1ccc(N2CC3(COC3)C2)c(-c2cn(C)c(=O)c3[nH]ccc23)c1 [Compound 16, N-(3-(6-methyl-7-oxo-6,7-dihydro-1H-pyrrolo[2,3-c]pyridin-4-yl)-4-(2-oxa-6-aza-spiro[3.3]heptan-6-yl)phenyl)ethanesulfonamide] | 0.38
CCCCS(=O)(=O)Nc1ccc(N2CC3(COC3)C2)c(-c2cn(C)c(=O)c3[nH]ccc23)c1 [Compound 17, N-(3-(6-methyl-7-oxo-6,7-dihydro-1H-pyrrolo[2,3-c]pyridin-4-yl)-4-(2-oxa-6-aza-spiro[3.3]heptan-6-yl)phenyl)butan-1-sulfonamide] | 0.44
Cn1cc(-c2cc(NS(=O)(=O)C3CC3)ccc2N2CC3(COC3)C2)c2cc[nH]c2c1=O [Compound 18, N-(3-(6-methyl-7-oxo-6,7-dihydro-1H-pyrrolo[2,3-c]pyridin-4-yl)-4-(2-oxa-6-aza-spiro[3.3]heptan-6-yl)phenyl)cyclopropanesulfonamide] | 0.52
CCOC(=O)C1CC12CCN(c1ccc(NS(=O)(=O)CC)cc1-c1cn(C)c(=O)c3[nH]ccc13)CC2 (stereo not shown) [Compound 19] | 0.41
CCS(=O)(=O)Nc1ccc(N2CCC3(CC2)CC3C(=O)O)c(-c2cn(C)c(=O)c3[nH]ccc23)c1 (stereo not shown) [Compound 20, 6-(4-(ethylsulfonamide)-2-(6-methyl-7-oxo-6,7-dihydro-1H-pyrrolo[2,3-c]pyridin-4-yl)phenyl)-6-aza-spiro[2.5]octan-1-carboxylic acid] | 0.55
Cn1cc(-c2cc(S(C)(=O)=O)ccc2N2CCC3(CC3)C2)c2cc[nH]c2c1=O [Compound 24, 6-methyl-4-(5-(methylsulfonyl)-2-(5-aza-spiro[2.4]heptan-5-yl)phenyl)-1H-pyrrolo[2,3-c]pyridin-7(6H)-one] | 0.017
CCS(=O)(=O)c1ccc(N2CCC3(CC3)C2)c(-c2cn(C)c(=O)c3[nH]ccc23)c1 [Compound 25, 4-(5(ethylsulfonyl)-2-(5-aza-spiro[2.4]heptan-5-yl)phenyl)-6-methyl-1H-pyrrolo[2,3-c]pyridin-7(6H)-one] | 0.026
Cn1cc(-c2cc(S(C)(=O)=O)ccc2N2CCC3(CC2)CC3)c2cc[nH]c2c1=O [Compound 26, 6-methyl-4-(5(methylsulfonyl)-2-(6-aza-spiro[2.5]octan-6-yl)phenyl)-1H-pyrrolo[2,3-c]pyridin-7(6H)-one] | 0.006
Cn1cc(-c2cc(S(C)(=O)=O)ccc2N2CCCC3(CC3)C2)c2cc[nH]c2c1=O [Compound 27, 6-methyl-4-(5(methylsulfonyl)-2-(5-aza-spiro[2.5]octan-5-yl)phenyl)-1H-pyrrolo[2,3-c]pyridin-7(6H)-one] | 0.031
Cn1cc(-c2cc(S(=O)(=O)C3CC3)ccc2N2CCCC3(CC3)C2)c2cc[nH]c2c1=O [Compound 28, 4-(5-(cyclopropylsulfonyl)-2-(5-aza-spiro[2.5]octan-5-yl)phenyl)-6-methyl-1H-pyrrolo[2,3-c]pyridin-7(6H)-one] | 0.036
Cn1cc(-c2cc(S(=O)(=O)C3CC3)ccc2N2CC3(CCC3)C2)c2cc[nH]c2c1=O [Compound 29, 4-(5-(cyclopropylsulfonyl)-2-(2-aza-spiro[3.3]heptan-2-yl)phenyl)-6-methyl-1H-pyrrolo[2,3-c]pyridin-7(6H)-one] | 0.045
Cn1cc(-c2cc(S(C)(=O)=O)ccc2N2CC3(CCC3)C2)c2cc[nH]c2c1=O [Compound 30, 6-methyl-4-(5-(methylsulfonyl)-2-(2-aza-spiro[3.3]heptan-2-yl)phenyl)-1H-pyrrolo[2,3-c]pyridin-7(6H)-one] | 0.038
Cn1cc(-c2cc(S(=O)(=O)C3COC3)ccc2N2CC3(CCC3)C2)c2cc[nH]c2c1=O [Compound 31, 6-methyl-4-(5-(oxetane-3-ylsulfonyl)-2-(2-aza-spiro[3.3]heptan-2-yl)phenyl)-1H-pyrrolo[2,3-c]pyridin-7(6H)-one] | 0.05
CCCCS(=O)(=O)c1ccc(N2CC3(CCC3)C2)c(-c2cn(C)c(=O)c3[nH]ccc23)c1 [Compound 32] | 0.065
CCS(=O)(=O)c1ccc(N2CC3(CCC3)C2)c(-c2cn(C)c(=O)c3[nH]ccc23)c1 [Compound 33, 4-(5-(ethylsulfonyl)-2-(2-aza-spiro[3.3]heptan-2-yl)phenyl)-6-methyl-1H-pyrrolo[2,3-c]pyridin-7(6H)-one] | 0.045
Cn1cc(-c2cc(S(C)(=O)=O)ccc2N2CC3(COC3)C2)c2cc[nH]c2c1=O [Compound 34, 6-methyl-4-(5-(methylsulfonyl)-2-(2-oxa-6-aza-spiro[3.3]heptan-6-yl)phenyl)-1H-pyrrolo[2,3-c]pyridin-7(6H)-one] | 0.38

Source: US12162878B2 (HINOVA PHARMACEUTICALS INC., priority 2018, dated 2024)
